The subject of this assay is C. difficile R20291 spores. Kind of assay: C. difficile spore germination assay (optical density, OD580). To be noted: for activity at 125 µM / % Germination: ± standard deviation.
Where [1] appears, read: Clostridioides difficile, R20291SPORES, Table 2, 6 mM taurocholate, 12 mM glycine.
[2] abbreviates: Clostridioides difficile, R20291SPORES, read-out: % Germination, Table 2, compound 125 μM, 6 mM taurocholate, 12 mM glycine.
Setting [3] is: Clostridioides difficile, R20291SPORES, read-out: IC50 against the R20291 strain, R20291 strain.
[4] abbreviates: Clostridioides difficile, R20291SPORES, Table 3, 6 mM taurocholate, 12 mM glycine.
The mark [5] stands for this setting: Clostridioides difficile, R20291SPORES, read-out: % Germination, Table 3, compound 125 μM, 6 mM taurocholate, 12 mM glycine.
Setting [6] is: Table 4, compound 125 uM, 6 mM taurocholate, 12 mM glycine.
[7] abbreviates: Clostridioides difficile, R20291SPORES, Table 4, 6 mM taurocholate, 12 mM glycine.

Like-named read-outs stand apart in the source and are kept apart here.

In the case of `C[C@H](CCC(=O)N1CCc2ccccc21)[C@H]1CC[C@H]2[C@@H]3[C@H](O)C[C@@H]4C[C@H](O)CC[C@]4(C)[C@H]3C[C@H](O)[C@]12C` [Compound 1], the IC50 is, setting by setting: under setting [1], 1 ± 0.3 µM; under setting [3], 1 µM. For the same compound, under setting [2], the activity at 125 µM is 4 ± 1%.

With `C[C@H](CCC(=O)N1CCc2c(Cl)cccc21)[C@H]1CC[C@H]2[C@@H]3[C@H](O)C[C@@H]4C[C@H](O)CC[C@]4(C)[C@H]3C[C@H](O)[C@]12C` [Compound 2], the activity at 125 µM under setting [2] was found to be 95 ± 8%.

For `Cc1ccc2c(c1)CCN2C(=O)CC[C@@H](C)[C@H]1CC[C@H]2[C@@H]3[C@H](O)C[C@@H]4C[C@H](O)CC[C@]4(C)[C@H]3C[C@H](O)[C@]12C` [Compound 3], under setting [2], the activity at 125 µM came out at 100%.

`C[C@H](CCC(=O)N1CCc2cc(F)ccc21)[C@H]1CC[C@H]2[C@@H]3[C@H](O)C[C@@H]4C[C@H](O)CC[C@]4(C)[C@H]3C[C@H](O)[C@]12C` [Compound 4] came in with an IC50 under setting [1] of 0.4 ± 0.04 µM. For the same compound, the activity at 125 µM under setting [2] came out at 5 ± 3%.

In the case of `C[C@H](CCC(=O)N1CCc2cc(Cl)ccc21)[C@H]1CC[C@H]2[C@@H]3[C@H](O)C[C@@H]4C[C@H](O)CC[C@]4(C)[C@H]3C[C@H](O)[C@]12C` [Compound 5], under setting [2], the activity at 125 µM was found to be 70 ± 3%.

In the case of `C[C@H](CCC(=O)N1CCc2cc(Br)ccc21)[C@H]1CC[C@H]2[C@@H]3[C@H](O)C[C@@H]4C[C@H](O)CC[C@]4(C)[C@H]3C[C@H](O)[C@]12C` [Compound 6], under setting [2], the activity at 125 µM came out at 90 ± 3%. Further, the IC50 under setting [3] turned out to be 0.4 µM.

Regarding `COc1ccc2c(c1)N(C(=O)CC[C@@H](C)[C@H]1CC[C@H]3[C@@H]4[C@H](O)C[C@@H]5C[C@H](O)CC[C@]5(C)[C@H]4C[C@H](O)[C@]13C)CC2` [Compound 7], the activity at 125 µM under setting [2] stood at 100%.

As for `C[C@H](CCC(=O)N1CCCc2ccccc21)[C@H]1CC[C@H]2[C@@H]3[C@H](O)C[C@@H]4C[C@H](O)CC[C@]4(C)[C@H]3C[C@H](O)[C@]12C` [Compound 8], the IC50 under setting [1] was determined as 22 ± 3 µM. Also, the activity at 125 µM under setting [2] was found to be 17 ± 3%.

Take `Cc1ccc2c(c1)CCCN2C(=O)CC[C@@H](C)[C@H]1CC[C@H]2[C@@H]3[C@H](O)C[C@@H]4C[C@H](O)CC[C@]4(C)[C@H]3C[C@H](O)[C@]12C` [Compound 9]: under setting [2], the activity at 125 µM is 100%.

Take `C[C@H](CCC(=O)N1CCc2ccccc2C1)[C@H]1CC[C@H]2[C@@H]3[C@H](O)C[C@@H]4C[C@H](O)CC[C@]4(C)[C@H]3C[C@H](O)[C@]12C` [Compound 11]: the activity at 125 µM under setting [2] was determined as 78 ± 2%.

On to `COc1ccc2c(c1)CCN(C(=O)CC[C@@H](C)[C@H]1CC[C@H]3[C@@H]4[C@H](O)C[C@@H]5C[C@H](O)CC[C@]5(C)[C@H]4C[C@H](O)[C@]13C)C2` [Compound 12], for which the activity at 125 µM under setting [2] came to 100%.

`C[C@H](CCC(=O)N1CCc2cc(Br)ccc2C1)[C@H]1CC[C@H]2[C@@H]3[C@H](O)C[C@@H]4C[C@H](O)CC[C@]4(C)[C@H]3C[C@H](O)[C@]12C` [Compound 13]: the activity at 125 µM under setting [2] worked out at 100%.

In turn, `C[C@H](CCC(=O)N(C)c1ccccc1)[C@H]1CC[C@H]2[C@@H]3[C@H](O)C[C@@H]4C[C@H](O)CC[C@]4(C)[C@H]3C[C@H](O)[C@]12C` [Compound 14] returned an IC50 under setting [1] of 32 ± 5 µM. Also, the activity at 125 µM under setting [2] was 31 ± 2%.

Consider `C=CCN(CC=C)C(=O)CC[C@@H](C)[C@H]1CC[C@H]2[C@@H]3[C@H](O)C[C@@H]4C[C@H](O)CC[C@]4(C)[C@H]3C[C@H](O)[C@]12C` [Compound 15], for which it took 8 ± 3 µM to reach half-maximal inhibition under setting [1] (IC50). Besides, under setting [2], the activity at 125 µM worked out at 0.9 ± 0.2%.

In turn, `Cc1nc(CC[C@@H](C)[C@H]2CC[C@H]3[C@@H]4[C@H](O)C[C@@H]5C[C@H](O)CC[C@]5(C)[C@H]4C[C@H](O)[C@]23C)nc2ccccc12` [Compound 30] gave an IC50 under setting [4] of 37 ± 4 µM. The activity at 125 µM under setting [5] is 35 ± 5%.

Turning to `C[C@H](CCc1nc(-c2ccccc2)c2ccccc2n1)[C@H]1CC[C@H]2[C@@H]3[C@H](O)C[C@@H]4C[C@H](O)CC[C@]4(C)[C@H]3C[C@H](O)[C@]12C` [Compound 31], the activity at 125 µM under setting [5] came out at 92 ± 4%.

For `C[C@H](CCc1ncc2c(F)cccc2n1)[C@H]1CC[C@H]2[C@@H]3[C@H](O)C[C@@H]4C[C@H](O)CC[C@]4(C)[C@H]3C[C@H](O)[C@]12C` [Compound 32], the activity at 125 µM under setting [5] worked out at 36 ± 6%.

In the case of `C[C@H](CCc1ncc2cc(F)ccc2n1)[C@H]1CC[C@H]2[C@@H]3[C@H](O)C[C@@H]4C[C@H](O)CC[C@]4(C)[C@H]3C[C@H](O)[C@]12C` [Compound 33], under setting [4], the IC50 was 28 ± 4 µM. Moreover, the activity at 125 µM under setting [5] turned out to be 7 ± 3%.

In the case of `C[C@H](CCc1ncc2cc(Cl)ccc2n1)[C@H]1CC[C@H]2[C@@H]3[C@H](O)C[C@@H]4C[C@H](O)CC[C@]4(C)[C@H]3C[C@H](O)[C@]12C` [Compound 34], under setting [5], the activity at 125 µM stood at 59 ± 0.2%.

For the compound `C[C@H](CCc1ncc2ccc(F)cc2n1)[C@H]1CC[C@H]2[C@@H]3[C@H](O)C[C@@H]4C[C@H](O)CC[C@]4(C)[C@H]3C[C@H](O)[C@]12C` [Compound 35], under setting [5], the activity at 125 µM worked out at 57 ± 2%.

As to `C[C@H](CCc1ncc2ccc(Cl)cc2n1)[C@H]1CC[C@H]2[C@@H]3[C@H](O)C[C@@H]4C[C@H](O)CC[C@]4(C)[C@H]3C[C@H](O)[C@]12C` [Compound 36], the activity at 125 µM under setting [5] came out at 89 ± 10%.

`COc1ccc2cnc(CC[C@@H](C)[C@H]3CC[C@H]4[C@@H]5[C@H](O)C[C@@H]6C[C@H](O)CC[C@]6(C)[C@H]5C[C@H](O)[C@]34C)nc2c1` [Compound 37]: under setting [5], the activity at 125 µM is 61 ± 5%.

Under setting [4], `C[C@H](CCc1ncc2cccc(F)c2n1)[C@H]1CC[C@H]2[C@@H]3[C@H](O)C[C@@H]4C[C@H](O)CC[C@]4(C)[C@H]3C[C@H](O)[C@]12C` [Compound 38] displayed an IC50 of 79 ± 23 µM. Also, under setting [5], the activity at 125 µM was found to be 7 ± 0.7%.

As for `COc1cc2cnc(CC[C@@H](C)[C@H]3CC[C@H]4[C@@H]5[C@H](O)C[C@@H]6C[C@H](O)CC[C@]6(C)[C@H]5C[C@H](O)[C@]34C)nc2cc1OC` [Compound 39], the activity at 125 µM under setting [5] turned out to be 78 ± 3%.

With `C[C@H](CCc1ncc2cc(F)c(F)cc2n1)[C@H]1CC[C@H]2[C@@H]3[C@H](O)C[C@@H]4C[C@H](O)CC[C@]4(C)[C@H]3C[C@H](O)[C@]12C` [Compound 41], under setting [5], the activity at 125 µM is 70 ± 23%.

As for `C[C@H](CCc1nc2ccccc2c(=O)[nH]1)[C@H]1CC[C@H]2[C@@H]3[C@H](O)C[C@@H]4C[C@H](O)CC[C@]4(C)[C@H]3C[C@H](O)[C@]12C` [Compound 43], under setting [4], the IC50 was 20 ± 11 µM. Further, the activity at 125 µM under setting [5] turned out to be 32 ± 0.6%.

Compound `C[C@H](CCc1nc2ccccc2[nH]1)[C@H]1CC[C@H]2[C@@H]3[C@H](O)C[C@@H]4C[C@H](O)CC[C@]4(C)[C@H]3C[C@H](O)[C@]12C` [Compound 45] had a 50% inhibitory concentration (IC50) (Table 4, 6 mM taurocholate, 12 mM glycine) of 12 ± 7 µM. In addition, the “% Germination” value under setting [6] amounted to 18 ± 2%.

Under setting [7], `C[C@H](CCc1nc2ccccc2[nH]1)[C@H]1CC[C@H]2[C@@H]3[C@H](O)C[C@@H]4C[C@H](O)CC[C@]4(C)[C@H]3C[C@H](O)[C@]12C` [Compound 46] had an IC50 of 6 ± 1 µM. For the same compound, the activity at 125 µM (Clostridioides difficile, R20291SPORES, read-out: % Germination, Table 4, compound 125 uM, 6 mM taurocholate, 12 mM glycine) was 23 ± 5%.

Under setting [7], `C[C@H](CCc1nc2ccccc2s1)[C@H]1CC[C@H]2[C@@H]3[C@H](O)C[C@@H]4C[C@H](O)CC[C@]4(C)[C@H]3C[C@H](O)[C@]12C` [Compound 47] displayed a half-maximal inhibitory concentration (IC50) of 6 ± 4 µM. In addition, the “% Germination” value under setting [6] is recorded as −6 ± 0.05%.

As for `C[C@H](CCc1nc2ccccc2s1)[C@H]1CC[C@H]2[C@@H]3[C@H](O)C[C@@H]4C[C@H](O)CC[C@]4(C)[C@H]3C[C@H](O)[C@]12C` [Compound 48], the “% Germination” value under setting [6] was determined as 88 ± 5%.

As to `C[C@H](CCc1nc2ccccc2s1)[C@H]1CC[C@H]2[C@@H]3[C@H](O)C[C@@H]4C[C@H](O)CC[C@]4(C)[C@H]3C[C@H](O)[C@]12C` [Compound 49], the “% Germination” value under setting [6] is 81 ± 2%.

With `C[C@H](CCc1nc2ccccc2o1)[C@H]1CC[C@H]2[C@@H]3[C@H](O)C[C@@H]4C[C@H](O)CC[C@]4(C)[C@H]3C[C@H](O)[C@]12C` [Compound 50], the IC50 under setting [7] worked out at 6 ± 3 µM. In addition, the “% Germination” value under setting [6] is on record as −4 ± 0.8%.

As for `C[C@H](CCc1nc2ccccc2o1)[C@H]1CC[C@H]2[C@@H]3[C@H](O)C[C@@H]4C[C@H](O)CC[C@]4(C)[C@H]3C[C@H](O)[C@]12C` [Compound 51], the “% Germination” value under setting [6] came to 80 ± 4%.

Turning to `C[C@H](CCc1nc2ccccc2o1)[C@H]1CC[C@H]2[C@@H]3[C@H](O)C[C@@H]4C[C@H](O)CC[C@]4(C)[C@H]3C[C@H](O)[C@]12C` [Compound 52], the “% Germination” value under setting [6] came to 83 ± 8%.

(Values after US12220421B2, “Inhibitors of C. difficile spore germination” (THE BOARDS OF REGENTS OF THE NEVADA SYSTEM OF HIGHER …, priority 2021, dated 2025).)
